Consider 1 compound from publication PMC11369081, “Molecular mechanism of prolactin-releasing peptide recognition and signaling via its G protein-coupled receptor” (Cell Discovery, 2024).

Peptide text beside a SMILES is read from it.

Assay type in all cases: cell-based
The target in one test is T1, PrRPR T117A (Homo sapiens, UniProt P49683, T117A).
T1 construct: expressed in transfected cells; host or cells: AD293 cells
In words: BRET2 Gq dissociation, T117A. To be noted: T117A (2.61), Gq-coupling, AD293 cells; mean ± S.E.M., n = 3; P <0.0001 vs WT; read-out: BRET2 pEC50 (converted). As to the method:
(§1) AD293 cells (Agilent) were propagated in Dulbecco’s Modified Eagle Medium (DMEM, Thermo Fisher Scientific), enriched with 10% fetal bovine serum (FBS, Thermo Fisher Scientific), and maintained at 37 °C in a 5% CO2 environment. Cells were then seeded in 6-well dishes at a density of 130,000–150,000 cells per mL and allowed to incubate overnight. On the next day, cells were transfected with plasmids at a 1:1:1:1 ratio for receptor:Gα-RLuc8:Gβ:Gγ-GFP2[52]. PEI MAX 40 K (BIOHUB) was utilized to form complex with the plasmids at a ratio of 3 µL PEI per µg of plasmids, in OptiMEM (Gibco-Thermo Fisher Scientific) at a concentration of 10 ng plasmids per µL OptiMEM. After 24 h of incubation, the culture was harvested by centrifugation with PBS. The cell suspension was then allocated into a white 384-well plate at a volume of 30 µL per well, followed by the addition of 10 µL of freshly prepared 50 µM coelenterazine 400a (Yeasen). […] Plates were subsequently read in a BioTek Synergy H1 microplate reader (BioTek) equipped with 395 nm (RLuc8-coelenterazine 400a) and 510 nm (GFP2) emission filters. BRET2 ratios were calculated as the ratio of the GFP2 emission to RLuc8 emission. […]
(§2) Supplementary Fig. S4 | Effects of mutations in the ligand-binding pocket and G protein intereface of Gq coupled PrRPR by BRET2 assay. […] BRET2 assay signals were measured after stimulation with PrRP20. […]
On the technique in general: Bioluminescence resonance energy transfer reports proximity on the nanometre scale.

The target of the next test is T2, PrRPR H295A (Homo sapiens, UniProt P49683, H295A).
T2 construct: Flag; expressed in transfected cells; host or cells: AD293 cells
T2 sequence (P49683 whole entry H295A): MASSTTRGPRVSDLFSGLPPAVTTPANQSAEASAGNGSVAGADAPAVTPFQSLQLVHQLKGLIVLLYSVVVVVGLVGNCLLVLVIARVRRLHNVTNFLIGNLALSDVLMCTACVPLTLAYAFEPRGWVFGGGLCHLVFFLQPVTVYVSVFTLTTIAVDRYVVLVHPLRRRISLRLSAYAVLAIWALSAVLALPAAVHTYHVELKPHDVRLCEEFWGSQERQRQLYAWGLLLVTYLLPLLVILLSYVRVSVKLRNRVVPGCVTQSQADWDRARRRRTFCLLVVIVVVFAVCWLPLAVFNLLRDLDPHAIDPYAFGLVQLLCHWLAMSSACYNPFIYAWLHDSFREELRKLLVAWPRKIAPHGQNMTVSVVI
Briefly: BRET2 Gq dissociation, H295A. The note with it: H295A (6.52), Gq-coupling, AD293 cells; mean ± S.E.M., n = 3; P <0.0001 vs WT; read-out: BRET2 pEC50 (converted). As to the method: as §1, §2

In another test the target is T3, PrRPR P142A (Homo sapiens, UniProt P49683, P142A).
T3 construct: expressed in transfected cells; host or cells: AD293 cells
T3 sequence (P49683 whole entry P142A): as the sequence (P49683 whole entry H295A) above, with P142A, A295H counted along it
Briefly: BRET2 Gq dissociation, P142A. To be noted: P142A (3.33), Gq-coupling, AD293 cells; mean ± S.E.M., n = 3; P <0.0001 vs WT; read-out: BRET2 pEC50 (converted). As for the experimental part:
as §1, §2

Another test concerns the target T4, PrRPR D302A (Homo sapiens, UniProt P49683, D302A).
T4 construct: Flag; expressed in transfected cells; host or cells: AD293 cells
Briefly: BRET2 Gi dissociation, D302A. The note with it: D302A (6.59), Gi-coupling, AD293 cells; mean ± S.E.M., n = 3; P <0.0001 vs WT; read-out: BRET2 pEC50 (converted). As to the method:
(§3) AD293 cells (Agilent) were propagated in Dulbecco’s Modified Eagle Medium (DMEM, Thermo Fisher Scientific), enriched with 10% fetal bovine serum (FBS, Thermo Fisher Scientific), and maintained at 37 °C in a 5% CO2 environment. Cells were then seeded in 6-well dishes at a density of 130,000–150,000 cells per mL and allowed to incubate overnight. On the next day, cells were transfected with plasmids at a 1:1:1:1 ratio for receptor:Gα-RLuc8:Gβ:Gγ-GFP2[52]. PEI MAX 40 K (BIOHUB) was utilized to form complex with the plasmids at a ratio of 3 µL PEI per µg of plasmids, in OptiMEM (Gibco-Thermo Fisher Scientific) at a concentration of 10 ng plasmids per µL OptiMEM. After 24 h of incubation, the culture was harvested by centrifugation with PBS. The cell suspension was then allocated into a white 384-well plate at a volume of 30 µL per well, followed by the addition of 10 µL of freshly prepared 50 µM coelenterazine 400a (Yeasen). Following a 15-min equilibration period, cells were treated with 10 µL of ligand for an additional 5 min. Plates were subsequently read in a BioTek Synergy H1 microplate reader (BioTek) equipped with 395 nm (RLuc8-coelenterazine 400a) and 510 nm (GFP2) emission filters. BRET2 ratios were calculated as the ratio of the GFP2 emission to RLuc8 emission. Data were normalized to the baseline response of the ligand. […]

A further test addresses T5, PrRPR L210A (Homo sapiens, UniProt P49683, L210A).
T5 construct: expressed in transfected cells; host or cells: AD293 cells
In words: BRET2 Gq dissociation, L210A. To be noted: L210A (ECL2), Gq-coupling, AD293 cells; mean ± S.E.M., n = 3; P <0.0001 vs WT; read-out: BRET2 pEC50 (converted). As for the experimental part:
as §1, §2

Another test concerns the target T6, PrRPR C113A (Homo sapiens, UniProt P49683, C113A).
T6 construct: expressed in transfected cells; host or cells: AD293 cells
Briefly: BRET2 Gq dissociation, C113A. To be noted: C113A (2.57), Gq-coupling, AD293 cells; mean ± S.E.M., n = 3; P 0.0007 vs WT; read-out: BRET2 pEC50 (converted). As to the method: as §1, §2

In a further test the target is T7, PrRPR WT (Homo sapiens, UniProt P49683).
T7 construct: expressed in transfected cells; host or cells: AD293 cells
T7 sequence (P49683 1-370): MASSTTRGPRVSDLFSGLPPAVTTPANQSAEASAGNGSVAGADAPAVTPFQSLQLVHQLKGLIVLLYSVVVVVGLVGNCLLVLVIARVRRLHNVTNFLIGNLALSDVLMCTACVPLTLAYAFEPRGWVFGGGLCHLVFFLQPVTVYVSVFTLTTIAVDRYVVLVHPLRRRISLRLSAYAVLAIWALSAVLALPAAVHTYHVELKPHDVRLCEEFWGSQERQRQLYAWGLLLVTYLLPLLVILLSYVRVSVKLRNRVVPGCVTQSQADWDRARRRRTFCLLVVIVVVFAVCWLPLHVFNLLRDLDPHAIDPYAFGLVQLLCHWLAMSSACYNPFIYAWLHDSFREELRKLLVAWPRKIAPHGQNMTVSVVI
Briefly: BRET2 Gi dissociation, WT. The note with it: Gi-coupling, AD293 cells. As for the experimental part: as §3

A further test addresses T8, PrRPR V145A (Homo sapiens, UniProt P49683, V145A).
T8 construct: expressed in transfected cells; host or cells: AD293 cells
Briefly: BRET2 Gq dissociation, V145A. To be noted: V145A (3.36), Gq-coupling, AD293 cells; mean ± S.E.M., n = 3; P <0.0001 vs WT; read-out: BRET2 pEC50 (converted). As for the experimental part: as §1, §2

A further test addresses T9, PrRPR Q141A (Homo sapiens, UniProt P49683, Q141A).
T9 construct: expressed in transfected cells; host or cells: AD293 cells
Briefly: BRET2 Gi dissociation, Q141A. To be noted: Q141A (3.32), Gi-coupling, AD293 cells; mean ± S.E.M., n = 3; P 0.0002 vs WT; read-out: BRET2 pEC50 (converted). As to the method:
as §3

For a further test, the target named is T10, PrRPR F313A (Homo sapiens, UniProt P49683, F313A).
T10 construct: Flag; expressed in transfected cells; host or cells: AD293 cells
T10 sequence (P49683 whole entry F313A): as the sequence (P49683 whole entry H295A) above, with A295H, F313A counted along it
In words: BRET2 Gi dissociation, F313A. The note with it: F313A (7.31), Gi-coupling, AD293 cells; mean ± S.E.M., n = 3; P <0.0001 vs WT; read-out: BRET2 pEC50 (converted). As for the experimental part:
as §3

T9 sequence (P49683 whole entry Q141A): as the sequence (P49683 whole entry H295A) above, with Q141A, A295H counted along it
T8 sequence (P49683 whole entry V145A): as the sequence (P49683 whole entry H295A) above, with V145A, A295H counted along it
T1 sequence (P49683 whole entry T117A): as the sequence (P49683 whole entry H295A) above, with T117A, A295H counted along it
T6 sequence (P49683 whole entry C113A): as the sequence (P49683 whole entry H295A) above, with C113A, A295H counted along it
T4 sequence (P49683 whole entry D302A): as the sequence (P49683 whole entry H295A) above, with A295H, D302A counted along it
T5 sequence (P49683 whole entry L210A): as the sequence (P49683 whole entry H295A) above, with L210A, A295H counted along it

As to `CC[C@H](C)[C@H](NC(=O)CNC(=O)[C@H](CCCNC(=N)N)NC(=O)[C@H](CO)NC(=O)[C@H](C)NC(=O)[C@H](Cc1ccc(O)cc1)NC(=O)[C@H](Cc1c[nH]c2ccccc12)NC(=O)[C@H](C)NC(=O)[C@@H]1CCCN1C(=O)[C@H](CC(N)=O)NC(=O)[C@@H](NC(=O)[C@H](CC(=O)O)NC(=O)[C@@H]1CCCN1C(=O)[C@@H](N)[C@@H](C)O)[C@@H](C)CC)C(=O)N[C@@H](CCCNC(=N)N)C(=O)N1CCC[C@H]1C(=O)N[C@H](C(=O)NCC(=O)N[C@@H](CCCNC(=N)N)C(=O)N[C@@H](Cc1ccccc1)C(N)=O)C(C)C` [PrRP20] (H-TPDINPAWYASRGIRPVGRF-NH2), the EC50 was 107 nM at PrRPR T117A; 4.79 nM on PrRPR H295A; 4.79 nM on PrRPR P142A; 1120 nM on PrRPR D302A; 7.08 nM at PrRPR L210A; 3.39 nM on PrRPR C113A. Also, the EC50 at PrRPR WT (WT, 5 min ligand, mean ± S.E.M., n = 3 (triplicates), read-out: BRET2 pEC50 (converted)) was 1.86 nM; at PrRPR V145A, 4.79 nM; at PrRPR Q141A, 7.59 nM; at PrRPR F313A, 14.8 nM. The BRET2 span on PrRPR WT (WT (reference for normalisation), n = 3) was 100.00 %WT.
